The subject of assay [1] is annual bluegrass (Poa annua L.). The experiment in a line: Whole plant non-target site resistance experiment with P450 inhibitors malathion or PBO (control 21 days after treatment). It is filed as in vivo. Conditions: for Annual bluegrass control S: susceptible (S). The protocol:
Additional experiments were conducted during March–April 2015 to determine if non-target site based mechanisms conferred resistance to ALS inhibitors in our annual bluegrass population, POAAN-R3. Plants (RP6, RP7, and S) were cultured in plastic conical containers as previously described and allowed to acclimate to the glasshouse for 18 days prior to initiating two experiments.
In the first experiment, resistant (RP6, RP7) and susceptible (S) plants were treated with foramsulfuron at 29 g ha^−1, trifloxysulfuron (Monument. Syngenta Professional Products. Greensboro, NC, USA) at 27.8 g ha^−1, imazaquin (Image. BASF Corporation. Research Triangle Park, NC) at 27.5 g ha^−1, or bispyribac-sodium (Velocity. Valent USA Corporation. Walnut Creek, CA, USA) at 70 g ha^−1. All herbicides were applied alone or in combination with either malathion (Spectrum Group. St. Louis, MO, USA) at 1000 g ha^−1 or piperonyl butoxide (Sigma Aldrich. St. Louis, MO, USA) at 2100 g ha^−1. Malathion and piperonyl butoxide (PBO) inhibit cytochrome P450 monooxygenases involved in metabolism of ALS inhibiting herbicides and are commonly used at the application rates tested herein to evaluate non-target site based resistance mechanisms in weeds (Burnet et al. [1994]; Christopher et al. [1992]; Yu and Powles [2014b]; Rao et al. [1995]). All herbicides were mixed in water carrier and included non-ionic surfactant at 0.25 % v/v. Malathion and PBO were mixed with methanol and de-ionized water (50:50) and applied 60 min prior to herbicide application using a previously described enclosed spray chamber on 13 February 2015.
Annual bluegrass control was visually assessed on a 0 (i.e., no control) to 100 % (i.e., complete kill) scale relative to the non-treated 21 days after treatment. After all control data had been collected, aboveground biomass was harvested from each plastic conical container at the soil line using scissors, dried at 100 °C, and weighed. Treatments were arranged as a 3 × 5 × 3 factorial with three plant selections (RP6, RP7, S), five herbicides (foramsulfuron, trifloxysulfuron, imazaquin, bispyribac-sodium, non-treated) and three P450 inhibitor treatments (malathion, PBO, non-treated) in a completely randomized design with four replications and repeated in separate glasshouses during February 2015.

Assay [2] deals with T1, recombinant Arabidopsis thaliana ALS wild-type enzyme (WT—sensitive) (Arabidopsis thaliana, UniProt P17597).
T1 construct: Protein constructs contained an 85 amino acid N-terminal deletion (chloroplast transit peptide); Hexa-histidine tag (N); made in house
The experiment in a line: biochemical. The procedure:
(§1) Effects of SNPs identified in sequencing analysis on ALS activity were studied using A. thaliana. The ALS gene from A. thaliana and derivatives thereof were de novo synthesized and subcloned into pET-24d(+) (Life Technologies. Grand Island, NY, USA) using NcoI and XhoI restriction sites. Protein constructs contained an 85 amino acid N-terminal deletion (chloroplast transit peptide) and the addition of an N-terminal Hexa-histidine tag to facilitate purification.
(§2) Lysis was performed by at least two passes through a fluidizer, followed by centrifuging at 80000×g for 30 min at 4 °C. […] Fractions containing ALS protein were pooled and stored at −20 °C.
(§3) Inhibitors, purchased from Sigma as Pestanal standards (Sigma-Aldrich, Deisenhofen, Germany), were dissolved in DMSO and added to the reaction mixture. Inhibitors evaluated included imidazolinone, sulfonylurea, triazolopyrimidines, sulfonylamino-carbonyl- triazolinones, and pyrimidinyl (thio) benzoate herbicides. The reaction mixture was incubated at 30 °C for 60 min and stopped with 70 µl of H2SO4 (3 M). The reaction was then heated to 56 °C for 15 min to convert acetolactate into acetoin. […] For each inhibitor, resistance factors were calculated by dividing IC50 values for mutant and sensitive ALS.

The test system of assay [3] is recombinant Arabidopsis thaliana ALS variant A205V. Type of assay: biochemical. Conditions: IC50 mutant divided by IC50 sensitive ALS; max inhibitor concentration 1.00 × 10^−04 M. The procedure: as §1, §2, §3
Assay [4] relates to recombinant Arabidopsis thaliana ALS variant W574L. It is filed as biochemical. Particulars: IC50 mutant divided by IC50 sensitive ALS; max inhibitor concentration 1.00 × 10^−04 M. The procedure:
as §1, §2, §3

Assay [5] relates to annual bluegrass (Poa annua L.). In words: Whole plant non-target site resistance experiment, foramsulfuron vs sulfometuron (control and plant height 28 days after treatment). Type of assay: in vivo. The procedure:
A second experiment was conducted to determine if non-target mechanisms could confer resistance to ALS inhibiting herbicides in our annual bluegrass population, POAAN-R3. ALS-resistant (RP1–RP8) and susceptible (S) plants were cultured in plastic conical containers under previously described glasshouse conditions for 28 days before being treated with foramsulfuron (29 g ha^−1) or sulfometuron-methyl (Oust XP; Dupont Professional Products. Wilmington, DE, USA) at 105 g ai ha^−1. Sulfometuron-methyl is an ALS inhibiting herbicide not metabolized by cytochrome P450 monooxygenases; therefore, it can be used to discern if weed populations survive ALS inhibiting herbicide treatment via target- or non-target site based mechanisms (Christopher et al. [1992]). Per label recommendations, sulfometuron-methyl included non-ionic surfactant at 0.25 % v/v. Treatments were mixed in water carrier applied in an enclosed spray chamber, as previously described, on 13 March 2015.
Annual bluegrass control was visually assessed on a 0 (i.e., no control) to 100 % (i.e., complete kill) scale relative to the non-treated 28 days after treatment. After all control data had been collected, plant height data were collected using a ruler placed at the soil surface of each plastic conical container and recording the distance to the tip of the bud leaf. Treatments were arranged as a 9 × 3 factorial with nine plant selections (RP1–RP8, S) and three herbicides (foramsulfuron, sulfometuron-methyl, non-treated) in a completely randomized design with four replications and repeated in separate glasshouses during March 2015.

Broadly, the IC50 is the concentration at which inhibition is half-maximal.

Like-named read-outs stand apart in the source and are kept apart here.

T1 sequence (P17597 86-670): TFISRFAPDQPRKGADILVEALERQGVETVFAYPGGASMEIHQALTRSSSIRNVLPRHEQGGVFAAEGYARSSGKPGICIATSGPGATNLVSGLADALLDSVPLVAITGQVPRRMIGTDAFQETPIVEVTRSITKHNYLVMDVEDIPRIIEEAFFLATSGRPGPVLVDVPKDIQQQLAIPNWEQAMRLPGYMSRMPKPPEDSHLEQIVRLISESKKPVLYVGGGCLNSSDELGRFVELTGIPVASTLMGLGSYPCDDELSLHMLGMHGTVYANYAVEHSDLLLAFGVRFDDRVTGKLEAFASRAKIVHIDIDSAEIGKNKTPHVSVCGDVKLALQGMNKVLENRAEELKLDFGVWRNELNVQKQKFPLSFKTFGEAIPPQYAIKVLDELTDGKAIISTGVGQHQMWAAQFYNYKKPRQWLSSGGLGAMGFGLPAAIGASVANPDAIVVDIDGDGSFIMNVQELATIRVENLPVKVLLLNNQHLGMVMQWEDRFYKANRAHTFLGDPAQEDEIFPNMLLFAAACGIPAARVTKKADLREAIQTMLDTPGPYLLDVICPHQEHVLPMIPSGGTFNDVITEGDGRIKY

For the molecule `COc1cc(OC)nc(Oc2cccc(Oc3nc(OC)cc(OC)n3)c2C(=O)O)n1` [Bispyribac-sodium], the “Annual bluegrass control RP6” value in assay [1] (RP6, herbicide alone, foramsulfuron 29, trifloxysulfuron 27.8, imazaquin 27.5, bispyribac-sodium 70 g ha^−1) was 28%; in assay [1] (RP6, herbicide with PBO 2100 g ha^−1 applied 60 min prior), 20%; in assay [1] (RP6, herbicide with malathion 1000 g ha^−1 applied 60 min prior), 32%. Moreover, the “Annual bluegrass control RP7” value in assay [1] (RP7, herbicide alone, foramsulfuron 29, trifloxysulfuron 27.8, imazaquin 27.5, bispyribac-sodium 70 g ha^−1) is 7%; in assay [1] (RP7, herbicide with PBO 2100 g ha^−1 applied 60 min prior), 14%; in assay [1] (RP7, herbicide with malathion 1000 g ha^−1 applied 60 min prior), 47%. The “Annual bluegrass control S” value came to 90% in assay [1] (herbicide alone, foramsulfuron 29, trifloxysulfuron 27.8, imazaquin 27.5, bispyribac-sodium 70 g ha^−1); 86% in assay [1] (herbicide with PBO 2100 g ha^−1 applied 60 min prior); 92% in assay [1] (herbicide with malathion 1000 g ha^−1 applied 60 min prior).

As to `O=C(Nc1nc(OC(F)F)cc(OC(F)F)n1)NS(=O)(=O)c1ccccc1C(=O)O` [Primisulfuron], the IC50 in assay [2] was found to be 3.14 nM. Besides, the “Resistance factor A205V” value in assay [3] worked out at 429. Moreover, the “Resistance factor W574L” value in assay [4] was 5728.

Turning to `COc1nc(C)nc(NC(=O)NS(=O)(=O)c2ccccc2CCC(F)(F)F)n1` [Prosulfuron], in assay [2], the IC50 came to 2.88 nM. In addition, in assay [3], the “Resistance factor A205V” value is reported as 88. Besides, the “Resistance factor W574L” value in assay [4] is on record as 3524.

As for `COc1cc(OC)n2nc(NS(=O)(=O)c3c(C(F)(F)F)ccnc3OC)nc2n1` [Pyroxulam], in assay [2] (concentration for 50 % inhibition of WT enzyme, max inhibitor concentration 1.00 × 10^−04 M, read-out: WT sensitivity [IC50]), the IC50 amounted to 4.12 nM. Moreover, the “Resistance factor A205V” value in assay [3] amounted to 162. In assay [4], the “Resistance factor W574L” value was 24,268.

As for `CC(C)C1(C)N=C(c2ncccc2C(=O)O)NC1=O` (stereo not drawn) [Imazapyr], the IC50 in assay [2] is 6060 nM. Besides, the “Resistance factor A205V” value in assay [3] came out at 16. The “Resistance factor W574L” value in assay [4] is 16.

On to `COC(=O)c1ccccc1S(=O)(=O)NC(=O)Nc1nc(C)cc(C)n1` [Sulfometuron, Sulfometuron-methyl], for which the “Annual bluegrass control RP1” value in assay [5] (RP1, 28 days after treatment, minimum of two tillers, foramsulfuron 29, sulfometuron 105 g ha^−1) was found to be 24%. Moreover, the “Annual bluegrass height RP1” value in assay [5] (RP1, plant height 28 days after treatment, foramsulfuron 29, sulfometuron 105 g ha^-1, non-treated 118 mm) is 76 mm. For the same molecule, in assay [5] (RP2, 28 days after treatment, minimum of two tillers, foramsulfuron 29, sulfometuron 105 g ha^−1), the “Annual bluegrass control RP2” value is given as 29%. Besides, in assay [5] (RP2, plant height 28 days after treatment, foramsulfuron 29, sulfometuron 105 g ha^-1, non-treated 129 mm), the “Annual bluegrass height RP2” value stood at 65 mm. The “Annual bluegrass control RP3” value in assay [5] (RP3, 28 days after treatment, minimum of two tillers, foramsulfuron 29, sulfometuron 105 g ha^−1) is 21%. The “Annual bluegrass height RP3” value in assay [5] (RP3, plant height 28 days after treatment, foramsulfuron 29, sulfometuron 105 g ha^-1, non-treated 173 mm) is on record as 78 mm. Further, the “Annual bluegrass control RP4” value in assay [5] (RP4, 28 days after treatment, minimum of two tillers, foramsulfuron 29, sulfometuron 105 g ha^−1) is recorded as 21%. Besides, the “Annual bluegrass height RP4” value in assay [5] (RP4, plant height 28 days after treatment, foramsulfuron 29, sulfometuron 105 g ha^-1, non-treated 140 mm) stood at 71 mm. In assay [5] (RP5, 28 days after treatment, minimum of two tillers, foramsulfuron 29, sulfometuron 105 g ha^−1), the “Annual bluegrass control RP5” value was 26%. In assay [5] (RP5, plant height 28 days after treatment, foramsulfuron 29, sulfometuron 105 g ha^-1, non-treated 114 mm), the “Annual bluegrass height RP5” value was 68 mm. Also, the “Annual bluegrass control RP6” value in assay [5] (RP6, 28 days after treatment, minimum of two tillers, foramsulfuron 29, sulfometuron 105 g ha^−1) is on record as 76%. Besides, the “Annual bluegrass height RP6” value in assay [5] (RP6, plant height 28 days after treatment, foramsulfuron 29, sulfometuron 105 g ha^-1, non-treated 106 mm) turned out to be 56 mm. In assay [5] (RP7, 28 days after treatment, minimum of two tillers, foramsulfuron 29, sulfometuron 105 g ha^−1), the “Annual bluegrass control RP7” value was 28%. Besides, the “Annual bluegrass height RP7” value in assay [5] (RP7, plant height 28 days after treatment, foramsulfuron 29, sulfometuron 105 g ha^-1, non-treated 125 mm) stood at 69 mm. Further, the “Annual bluegrass control RP8” value in assay [5] (RP8, 28 days after treatment, minimum of two tillers, foramsulfuron 29, sulfometuron 105 g ha^−1) stood at 21%. Also, in assay [5] (RP8, plant height 28 days after treatment, foramsulfuron 29, sulfometuron 105 g ha^-1, non-treated 132 mm), the “Annual bluegrass height RP8” value was determined as 67 mm. Also, the “Annual bluegrass control S” value in assay [5] (susceptible (S), 28 days after treatment, minimum of two tillers, foramsulfuron 29, sulfometuron 105 g ha^−1) was found to be 99%. Moreover, the “Annual bluegrass height S” value in assay [5] (susceptible (S), plant height 28 days after treatment, foramsulfuron 29, sulfometuron 105 g ha^-1, non-treated 111 mm) is recorded as 9 mm.

The record behind these values is PMC4698308, “A new amino acid substitution (Ala-205-Phe) in acetolactate synthase (ALS) confers broad spectrum resistance to ALS-inhibiting herbicides” (Planta, 2015).
